Source: patent publication US20060211751A1, “Zolmitriptan crystal forms” (priority 2004, published 2006)

Tests used:
Assay type in all cases: physicochemical
[1] = Transformation by slurry in other solvents (n-hexane, toluene, water) and drying, form determined by XRD
Text: Similarly to example 6 Zolmitriptan samples were slurried from other solvents or solvent systems after dissolution and precipitation from a specific solvent.

[2] = Transformation by pressing (crystal form before and after pressing); conditions: for Crystal Form after pressing: 100 mg pressed with approximately 1300 psi during 2 minutes
[3] = Transformation of zolmitriptan crystal forms by heating in a conventional oven, form determined by XRD; conditions: for Crystal form after heating: about 1.5 to 2 hours, conventional oven, XRD
Procedure: Zolmitriptan (0.5 g) crystalline forms were heated in a conventional oven for a period of about 1.5 to 2 hours at different temperatures. The crystal form of the samples was determined by XRD before and after heating.

Row | Compound | XRD sample (form after treatment) ([1]; Toluene, dried 63 °C under reduced pressure) | XRD sample (form after treatment) ([1]; Water, dried 63 °C under reduced pressure) | XRD sample (form after treatment) ([1]; immersed in 10 v/w Toluene, filtered, sucked ½ hour on Buchner) | XRD sample (form after treatment) ([1]; immersed in 10 v/w Water, filtered, sucked ½ hour on Buchner) | XRD sample (form after treatment) ([1]; immersed in 10 v/w n-Hexane, filtered, sucked ½ hour on Buchner) | XRD sample (form after treatment) ([1]; n-Hexane, dried 63 °C under reduced pressure) | Crystal Form after pressing [2] | transformation to other crystal form on pressing [2] | Crystal form after heating ([3]; heating temp. 60 °C) | stability upon heating (conversion to Form A) ([3]; heated at about 60 °C to about 110 °C for about 2 hours) | Crystal form after heating ([3]; heating temp. 100 °C) | Crystal form after heating ([3]; heating temp. 110 °C)
1 | CN(C)CCc1c[nH]c2ccc(C[C@H]3COC(=O)N3)cc12 [Form N] | Form A | Form A | Form K | Form A | Form D | Form A | Form N | not transform to other crystal form | N + A |  |  | 
2 | CN(C)CCc1c[nH]c2ccc(C[C@H]3COC(=O)N3)cc12 [Amorphous form] |  |  |  |  |  |  | Amorphous Form | not transform to other crystal form | Amorph | does not convert to Form A | Amorph | Amorph
